Data: US12227500B2, “Substituted pyrrolo[2,3-b]pyridines for suppressing toxic endoplasmic reticulum stress” (THE TRUSTEES OF COLUMBIA UNIVERSITY IN THE CITY OF NEW YORK, priority 2018, dated 2025)
Where two headings read alike, the source gives them in different places.

Legend:
Experiment in all cases: Radiolabeled ATP kinase assay, panel of 371 kinases (Table S6)
Type in all cases: biochemical
[1] = target: T1, panel of 371 human kinases (Homo sapiens, UniProt O75116); conditions: ROCK2; 0.1 μM; 10 μM ATP; read-out: % Enzyme Activity (relative to DMSO controls)
T1 construct: purchased Reaction Biology Corp
Excerpt: (§1) ; FIG. 38C). […]. Further targeted analyses, such as genetic knock-down or knock-out, may be warranted to parse the role of these additional kinases in our model of neurodegeneration.

[2] = target: T2, panel of 371 human kinases (Homo sapiens, UniProt P25098); conditions: GRK2; 0.1 μM; 10 μM ATP; read-out: % Enzyme Activity (relative to DMSO controls)
T2 construct: purchased Reaction Biology Corp
Excerpt: as §1

[3] = target: T3, panel of 371 human kinases (Homo sapiens, UniProt Q15746); conditions: MLCK/MYLK; 0.1 μM; 10 μM ATP; read-out: % Enzyme Activity (relative to DMSO controls)
T3 construct: purchased Reaction Biology Corp
Excerpt: as §1

[4] = target: T4, panel of 371 human kinases (Homo sapiens, UniProt Q9NYL2); conditions: ZAK/MLTK; 0.1 μM; 10 μM ATP; read-out: % Enzyme Activity (relative to DMSO controls)
T4 construct: purchased Reaction Biology Corp
Excerpt: as §1

[5] = target: T5, panel of 371 human kinases (Homo sapiens, UniProt P49674); conditions: CK1epsilon; 0.1 μM; 10 μM ATP; read-out: % Enzyme Activity (relative to DMSO controls)
T5 construct: purchased Reaction Biology Corp
T5 sequence (P49674 whole entry): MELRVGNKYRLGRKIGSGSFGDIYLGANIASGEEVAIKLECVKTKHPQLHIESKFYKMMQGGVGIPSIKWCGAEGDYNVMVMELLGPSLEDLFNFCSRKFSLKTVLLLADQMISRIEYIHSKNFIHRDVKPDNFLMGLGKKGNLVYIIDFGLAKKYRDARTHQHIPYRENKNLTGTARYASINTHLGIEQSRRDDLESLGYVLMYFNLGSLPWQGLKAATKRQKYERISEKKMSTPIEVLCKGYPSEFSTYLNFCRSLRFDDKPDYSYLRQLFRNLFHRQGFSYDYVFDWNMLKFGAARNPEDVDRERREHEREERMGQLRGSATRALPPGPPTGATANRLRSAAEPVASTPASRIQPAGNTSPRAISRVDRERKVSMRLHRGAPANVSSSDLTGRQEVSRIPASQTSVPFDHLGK
Excerpt: as §1

[6] = target: T6, panel of 371 human kinases (Homo sapiens, UniProt Q06187); conditions: BTK; 0.1 μM; 10 μM ATP; read-out: % Enzyme Activity (relative to DMSO controls)
T6 construct: purchased Reaction Biology Corp
T6 sequence (Q06187 whole entry): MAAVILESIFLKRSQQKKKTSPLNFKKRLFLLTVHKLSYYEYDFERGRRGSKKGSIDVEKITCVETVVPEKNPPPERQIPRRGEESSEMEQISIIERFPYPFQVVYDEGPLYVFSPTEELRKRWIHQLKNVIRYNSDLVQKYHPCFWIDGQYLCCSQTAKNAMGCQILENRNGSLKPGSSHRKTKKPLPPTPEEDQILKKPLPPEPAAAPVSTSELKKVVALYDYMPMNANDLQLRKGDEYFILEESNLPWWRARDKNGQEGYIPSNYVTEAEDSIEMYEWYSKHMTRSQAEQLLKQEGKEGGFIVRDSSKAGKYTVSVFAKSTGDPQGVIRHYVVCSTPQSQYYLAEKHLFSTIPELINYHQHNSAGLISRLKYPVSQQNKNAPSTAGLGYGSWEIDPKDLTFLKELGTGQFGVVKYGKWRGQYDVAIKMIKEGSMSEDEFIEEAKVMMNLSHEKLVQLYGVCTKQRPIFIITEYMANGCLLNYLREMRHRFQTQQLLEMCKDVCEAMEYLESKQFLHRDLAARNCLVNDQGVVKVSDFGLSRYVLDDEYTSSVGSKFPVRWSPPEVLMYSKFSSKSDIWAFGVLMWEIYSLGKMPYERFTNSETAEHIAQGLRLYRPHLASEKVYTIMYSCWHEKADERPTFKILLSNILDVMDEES
Excerpt: as §1

[7] = target: T7, panel of 371 human kinases (Homo sapiens, UniProt P10398); conditions: ARAF; 0.1 μM; 10 μM ATP; read-out: % Enzyme Activity (relative to DMSO controls)
T7 construct: purchased Reaction Biology Corp
Excerpt: as §1

[8] = target: T8, panel of 371 human kinases (Homo sapiens, UniProt Q9H422); conditions: HIPK3; 0.1 μM; 10 μM ATP; read-out: % Enzyme Activity (relative to DMSO controls)
T8 construct: purchased Reaction Biology Corp
T8 sequence (Q9H422 whole entry): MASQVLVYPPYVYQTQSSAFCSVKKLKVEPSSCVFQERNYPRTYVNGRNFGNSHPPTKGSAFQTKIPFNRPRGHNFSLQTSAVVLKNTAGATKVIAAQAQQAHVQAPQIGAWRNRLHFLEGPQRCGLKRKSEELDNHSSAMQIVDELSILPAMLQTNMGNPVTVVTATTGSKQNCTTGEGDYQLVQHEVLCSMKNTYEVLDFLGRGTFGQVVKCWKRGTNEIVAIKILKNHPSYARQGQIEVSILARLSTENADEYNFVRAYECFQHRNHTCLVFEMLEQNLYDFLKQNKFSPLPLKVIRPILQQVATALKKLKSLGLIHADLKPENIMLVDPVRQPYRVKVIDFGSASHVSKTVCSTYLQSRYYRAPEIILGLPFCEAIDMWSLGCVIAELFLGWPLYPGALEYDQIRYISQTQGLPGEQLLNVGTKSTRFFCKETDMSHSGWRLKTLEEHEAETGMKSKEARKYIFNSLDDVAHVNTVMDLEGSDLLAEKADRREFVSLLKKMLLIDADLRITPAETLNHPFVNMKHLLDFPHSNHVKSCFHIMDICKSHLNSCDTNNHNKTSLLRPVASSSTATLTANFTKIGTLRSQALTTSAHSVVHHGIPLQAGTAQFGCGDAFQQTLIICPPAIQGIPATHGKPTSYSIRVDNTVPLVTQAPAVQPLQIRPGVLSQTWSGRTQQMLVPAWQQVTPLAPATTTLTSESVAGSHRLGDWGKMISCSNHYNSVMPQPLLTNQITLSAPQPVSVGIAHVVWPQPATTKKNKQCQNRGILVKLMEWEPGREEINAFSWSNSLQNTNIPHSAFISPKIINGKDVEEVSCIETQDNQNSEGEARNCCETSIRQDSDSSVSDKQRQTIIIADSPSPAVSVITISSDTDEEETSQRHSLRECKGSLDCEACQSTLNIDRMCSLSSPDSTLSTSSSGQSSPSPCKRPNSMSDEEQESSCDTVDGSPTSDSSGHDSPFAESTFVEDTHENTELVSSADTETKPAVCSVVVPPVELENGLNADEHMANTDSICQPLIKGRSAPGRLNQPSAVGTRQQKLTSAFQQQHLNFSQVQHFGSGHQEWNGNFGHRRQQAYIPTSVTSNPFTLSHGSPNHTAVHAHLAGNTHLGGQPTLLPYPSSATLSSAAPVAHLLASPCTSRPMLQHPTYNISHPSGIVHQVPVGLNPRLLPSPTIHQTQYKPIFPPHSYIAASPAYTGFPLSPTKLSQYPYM
Excerpt: as §1

[9] = target: T9, panel of 371 human kinases (Homo sapiens, UniProt P51817); conditions: PRKX; 0.1 μM; 10 μM ATP; read-out: % Enzyme Activity (relative to DMSO controls)
T9 construct: purchased Reaction Biology Corp
T9 sequence (P51817 whole entry): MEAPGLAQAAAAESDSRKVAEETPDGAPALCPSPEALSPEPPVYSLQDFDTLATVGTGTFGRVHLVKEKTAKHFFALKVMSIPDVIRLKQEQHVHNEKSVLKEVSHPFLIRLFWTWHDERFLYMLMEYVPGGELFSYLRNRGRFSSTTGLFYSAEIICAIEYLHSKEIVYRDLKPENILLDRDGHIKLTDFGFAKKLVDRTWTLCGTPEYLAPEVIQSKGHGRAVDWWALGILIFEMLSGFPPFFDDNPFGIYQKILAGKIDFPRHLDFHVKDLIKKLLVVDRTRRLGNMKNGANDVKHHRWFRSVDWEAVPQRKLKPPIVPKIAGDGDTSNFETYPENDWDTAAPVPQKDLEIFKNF
Excerpt: as §1

[10] = target: T10, panel of 371 human kinases (Homo sapiens, UniProt P08581); conditions: c-MET; 0.1 μM; 10 μM ATP; read-out: % Enzyme Activity (relative to DMSO controls)
T10 construct: purchased Reaction Biology Corp
Excerpt: as §1

[11] = target: T11, panel of 371 human kinases (Homo sapiens, UniProt P24941); conditions: 0.1 μM, 10 μM ATP, read-out: % Enzyme Activity (relative to DMSO controls)
T11 construct: purchased Reaction Biology Corp
Excerpt: as §1

[12] = target: T12, panel of 371 human kinases (Homo sapiens, UniProt P37173); conditions: TGFBR2; 0.1 μM; 10 μM ATP; read-out: % Enzyme Activity (relative to DMSO controls)
T12 construct: purchased Reaction Biology Corp
Excerpt: as §1

[13] = target: T13, panel of 371 human kinases (Homo sapiens, UniProt Q5TCX8); conditions: MLK4; 0.1 μM; 10 μM ATP; read-out: % Enzyme Activity (relative to DMSO controls)
T13 construct: purchased Reaction Biology Corp
Excerpt: as §1

[14] = target: T14, panel of 371 human kinases (Homo sapiens, UniProt P50613); conditions: CDK7/cyclin H; 0.1 μM; 10 μM ATP; read-out: % Enzyme Activity (relative to DMSO controls)
T14 construct: purchased Reaction Biology Corp
T14 sequence (P50613 whole entry): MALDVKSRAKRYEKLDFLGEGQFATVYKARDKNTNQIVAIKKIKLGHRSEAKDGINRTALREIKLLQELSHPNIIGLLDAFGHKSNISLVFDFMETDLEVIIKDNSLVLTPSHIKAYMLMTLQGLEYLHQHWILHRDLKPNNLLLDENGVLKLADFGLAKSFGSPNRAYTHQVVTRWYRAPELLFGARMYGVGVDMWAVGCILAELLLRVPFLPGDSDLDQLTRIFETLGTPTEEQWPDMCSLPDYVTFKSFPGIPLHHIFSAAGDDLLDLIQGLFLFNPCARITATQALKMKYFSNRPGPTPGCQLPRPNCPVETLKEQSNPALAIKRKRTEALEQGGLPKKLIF
Excerpt: as §1

[15] = target: T15, panel of 371 human kinases (Homo sapiens, UniProt Q13237); conditions: PKG2/PRKG2; 0.1 μM; 10 μM ATP; read-out: % Enzyme Activity (relative to DMSO controls)
T15 construct: purchased Reaction Biology Corp
Excerpt: as §1

[16] = target: T16, panel of 371 human kinases (Homo sapiens, UniProt Q96RR4); conditions: CAMKK2; 0.1 μM; 10 μM ATP; read-out: % Enzyme Activity (relative to DMSO controls)
T16 construct: purchased Reaction Biology Corp
Excerpt: as §1

[17] = target: T17, panel of 371 human kinases (Homo sapiens, UniProt O94921); conditions: CDK14/cyclin Y (PFTK1); 0.1 μM; 10 μM ATP; read-out: % Enzyme Activity (relative to DMSO controls)
T17 construct: purchased Reaction Biology Corp
Excerpt: as §1

[18] = target: T18, panel of 371 human kinases (Homo sapiens, UniProt P21709); conditions: EPHA1; 0.1 μM; 10 μM ATP; read-out: % Enzyme Activity (relative to DMSO controls)
T18 construct: purchased Reaction Biology Corp
T18 sequence (P21709 26-976): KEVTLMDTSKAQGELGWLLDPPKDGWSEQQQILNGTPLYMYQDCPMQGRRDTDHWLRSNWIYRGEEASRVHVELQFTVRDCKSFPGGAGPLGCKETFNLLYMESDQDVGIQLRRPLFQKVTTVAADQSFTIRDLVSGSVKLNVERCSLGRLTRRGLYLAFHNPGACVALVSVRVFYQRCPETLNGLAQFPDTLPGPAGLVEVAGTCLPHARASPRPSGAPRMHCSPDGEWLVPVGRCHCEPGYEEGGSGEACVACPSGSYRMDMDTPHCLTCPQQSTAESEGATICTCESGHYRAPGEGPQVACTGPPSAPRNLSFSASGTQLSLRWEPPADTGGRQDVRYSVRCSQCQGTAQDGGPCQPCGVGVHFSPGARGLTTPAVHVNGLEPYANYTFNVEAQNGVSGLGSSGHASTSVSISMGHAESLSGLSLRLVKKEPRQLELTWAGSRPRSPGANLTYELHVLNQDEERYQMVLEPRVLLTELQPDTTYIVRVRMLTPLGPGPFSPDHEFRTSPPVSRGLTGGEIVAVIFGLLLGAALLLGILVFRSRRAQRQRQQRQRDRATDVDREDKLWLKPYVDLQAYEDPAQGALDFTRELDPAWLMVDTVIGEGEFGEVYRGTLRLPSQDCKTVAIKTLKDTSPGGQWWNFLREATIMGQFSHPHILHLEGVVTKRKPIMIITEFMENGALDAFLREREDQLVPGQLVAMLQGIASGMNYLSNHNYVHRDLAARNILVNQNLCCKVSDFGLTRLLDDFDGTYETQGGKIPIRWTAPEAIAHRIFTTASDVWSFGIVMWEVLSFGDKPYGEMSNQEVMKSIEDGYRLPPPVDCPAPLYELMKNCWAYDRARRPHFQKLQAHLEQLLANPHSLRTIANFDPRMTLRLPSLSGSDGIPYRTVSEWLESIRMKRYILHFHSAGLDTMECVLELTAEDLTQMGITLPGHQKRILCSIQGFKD
Excerpt: as §1

[19] = target: T19, panel of 371 human kinases (Homo sapiens, UniProt P41743); conditions: PKCiota; 0.1 μM; 10 μM ATP; read-out: % Enzyme Activity (relative to DMSO controls)
T19 construct: purchased Reaction Biology Corp
T19 sequence (P41743 whole entry): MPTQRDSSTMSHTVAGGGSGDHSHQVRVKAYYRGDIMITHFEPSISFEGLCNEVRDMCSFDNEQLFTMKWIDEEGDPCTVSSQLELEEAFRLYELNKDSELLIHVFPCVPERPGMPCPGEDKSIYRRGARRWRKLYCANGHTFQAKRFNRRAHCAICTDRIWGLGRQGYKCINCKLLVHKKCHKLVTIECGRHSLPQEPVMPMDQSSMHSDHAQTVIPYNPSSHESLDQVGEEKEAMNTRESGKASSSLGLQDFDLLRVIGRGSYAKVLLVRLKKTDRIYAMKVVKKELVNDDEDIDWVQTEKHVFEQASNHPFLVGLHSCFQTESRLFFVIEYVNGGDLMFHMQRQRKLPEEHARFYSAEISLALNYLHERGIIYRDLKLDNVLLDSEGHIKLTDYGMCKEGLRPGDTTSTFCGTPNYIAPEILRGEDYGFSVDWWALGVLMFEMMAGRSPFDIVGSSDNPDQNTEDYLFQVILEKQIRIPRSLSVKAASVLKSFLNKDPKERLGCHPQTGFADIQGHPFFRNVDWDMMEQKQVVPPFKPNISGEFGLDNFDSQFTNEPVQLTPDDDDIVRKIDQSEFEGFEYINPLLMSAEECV
Excerpt: as §1

[20] = target: T20, panel of 371 human kinases (Homo sapiens, UniProt Q13163); conditions: MEK5; 0.1 μM; 10 μM ATP; read-out: % Enzyme Activity (relative to DMSO controls)
T20 construct: purchased Reaction Biology Corp
Excerpt: as §1

[21] = target: T21, panel of 371 human kinases (Homo sapiens, UniProt Q00536); conditions: CDK16/cyclin Y (PCTAIRE); 0.1 μM; 10 μM ATP; read-out: % Enzyme Activity (relative to DMSO controls)
T21 construct: purchased Reaction Biology Corp
T21 sequence (Q00536 whole entry): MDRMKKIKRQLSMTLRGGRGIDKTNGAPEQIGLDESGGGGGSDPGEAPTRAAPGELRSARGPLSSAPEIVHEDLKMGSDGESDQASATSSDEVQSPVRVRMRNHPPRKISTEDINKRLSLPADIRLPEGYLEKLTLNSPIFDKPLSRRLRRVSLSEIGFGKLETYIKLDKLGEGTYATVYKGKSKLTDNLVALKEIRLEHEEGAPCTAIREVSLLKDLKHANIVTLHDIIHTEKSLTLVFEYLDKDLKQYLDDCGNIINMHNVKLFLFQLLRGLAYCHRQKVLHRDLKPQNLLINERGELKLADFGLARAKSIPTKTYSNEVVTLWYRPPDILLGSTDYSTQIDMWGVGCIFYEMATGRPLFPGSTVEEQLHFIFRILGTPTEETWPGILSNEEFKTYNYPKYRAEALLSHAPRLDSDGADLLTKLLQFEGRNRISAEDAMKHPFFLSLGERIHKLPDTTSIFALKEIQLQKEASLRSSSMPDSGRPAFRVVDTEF
Excerpt: as §1

[22] = target: T22, panel of 371 human kinases (Homo sapiens, UniProt Q8IWQ3); conditions: BRSK2; 0.1 μM; 10 μM ATP; read-out: % Enzyme Activity (relative to DMSO controls)
T22 construct: purchased Reaction Biology Corp
Excerpt: as §1

[23] = target: T23, panel of 371 human kinases (Homo sapiens, UniProt Q02750); conditions: MEK1; 0.1 μM; 10 μM ATP; read-out: % Enzyme Activity (relative to DMSO controls)
T23 construct: purchased Reaction Biology Corp
Excerpt: as §1

OCCN1CCN(Cc2ccc(-c3cnc4[nH]cc(-c5cccc(Cl)c5)c4c3)cc2)CC1 [Compound 12k, 2-(4-(4-(3-(3-Chlorophenyl)-1H-pyrrolo[2,3-b]pyridin-5-yl)benzyl)piperazin-1-yl)ethan-1-ol]
remaining activity at 0.1 µM [1]: 55.6%
remaining activity at 0.1 µM [2]: 96.3%
remaining activity at 0.1 µM [3]: 99.1%
remaining activity at 0.1 µM [4]: 77.9%
remaining activity at 0.1 µM [5]: 103%
remaining activity at 0.1 µM [6]: 99.7%
remaining activity at 0.1 µM [7]: 96.6%
remaining activity at 0.1 µM [8]: 113%
remaining activity at 0.1 µM [9]: 96.1%
remaining activity at 0.1 µM [10]: 88.2%
remaining activity at 0.1 µM ([11]; CDK2/cyclin A1): 87.1%
remaining activity at 0.1 µM ([11]; CDK2/cyclin A): 83.1%
remaining activity at 0.1 µM ([11]; CDK2/cyclin E2): 89.6%
remaining activity at 0.1 µM ([11]; CDK2/cyclin E): 98.3%
remaining activity at 0.1 µM ([11]; CDK2/cyclin O): 82.5%
remaining activity at 0.1 µM [12]: 88%
remaining activity at 0.1 µM [13]: 108%
remaining activity at 0.1 µM [14]: 89.2%
remaining activity at 0.1 µM [15]: 88.7%
remaining activity at 0.1 µM [16]: 94.9%
remaining activity at 0.1 µM [17]: 94.9%
remaining activity at 0.1 µM [18]: 89.4%
remaining activity at 0.1 µM [19]: 93%
remaining activity at 0.1 µM [20]: 85.6%
remaining activity at 0.1 µM [21]: 97.3%
remaining activity at 0.1 µM [22]: 93.5%
remaining activity at 0.1 µM [23]: 92.7%

CN1CCN(Cc2ccc(-c3cnc4[nH]cc(-c5ccc6[nH]ccc6c5)c4c3)cc2)CC1 [Compound 1, 3-(1H-Indol-5-yl)-5-(4-((4-methylpiperazin-1-yl)methyl)phenyl)-1H-pyrrolo[2,3-b]pyridine, reference compound]
remaining activity at 0.1 µM [1]: 71.1%
remaining activity at 0.1 µM [2]: 94%
remaining activity at 0.1 µM [3]: 93.4%
remaining activity at 0.1 µM [4]: 91.3%
remaining activity at 0.1 µM [5]: 117%
remaining activity at 0.1 µM [6]: 103%
remaining activity at 0.1 µM [7]: 108%
remaining activity at 0.1 µM [8]: 103%
remaining activity at 0.1 µM [9]: 95.5%
remaining activity at 0.1 µM [10]: 87.8%
remaining activity at 0.1 µM ([11]; CDK2/cyclin A1): 94.2%
remaining activity at 0.1 µM ([11]; CDK2/cyclin A): 90.2%
remaining activity at 0.1 µM ([11]; CDK2/cyclin E2): 110%
remaining activity at 0.1 µM ([11]; CDK2/cyclin E): 96.1%
remaining activity at 0.1 µM ([11]; CDK2/cyclin O): 102%
remaining activity at 0.1 µM [12]: 106%
remaining activity at 0.1 µM [13]: 99.9%
remaining activity at 0.1 µM [14]: 91.4%
remaining activity at 0.1 µM [15]: 93.8%
remaining activity at 0.1 µM [16]: 97.7%
remaining activity at 0.1 µM [17]: 110%
remaining activity at 0.1 µM [18]: 74.2%
remaining activity at 0.1 µM [19]: 100%
remaining activity at 0.1 µM [20]: 97.6%
remaining activity at 0.1 µM [21]: 130%
remaining activity at 0.1 µM [22]: 98%
remaining activity at 0.1 µM [23]: 111%
